Tests used:
RIPK1 = biological target: T1, RIPK1 (Homo sapiens, UniProt Q13546); assay: RIPK1 ADP-Glo biochemical kinase assay; conditions: read-out: RIPK1 ADP-Glo Kinase (IC50)
T1 sequence (Q13546 1-671): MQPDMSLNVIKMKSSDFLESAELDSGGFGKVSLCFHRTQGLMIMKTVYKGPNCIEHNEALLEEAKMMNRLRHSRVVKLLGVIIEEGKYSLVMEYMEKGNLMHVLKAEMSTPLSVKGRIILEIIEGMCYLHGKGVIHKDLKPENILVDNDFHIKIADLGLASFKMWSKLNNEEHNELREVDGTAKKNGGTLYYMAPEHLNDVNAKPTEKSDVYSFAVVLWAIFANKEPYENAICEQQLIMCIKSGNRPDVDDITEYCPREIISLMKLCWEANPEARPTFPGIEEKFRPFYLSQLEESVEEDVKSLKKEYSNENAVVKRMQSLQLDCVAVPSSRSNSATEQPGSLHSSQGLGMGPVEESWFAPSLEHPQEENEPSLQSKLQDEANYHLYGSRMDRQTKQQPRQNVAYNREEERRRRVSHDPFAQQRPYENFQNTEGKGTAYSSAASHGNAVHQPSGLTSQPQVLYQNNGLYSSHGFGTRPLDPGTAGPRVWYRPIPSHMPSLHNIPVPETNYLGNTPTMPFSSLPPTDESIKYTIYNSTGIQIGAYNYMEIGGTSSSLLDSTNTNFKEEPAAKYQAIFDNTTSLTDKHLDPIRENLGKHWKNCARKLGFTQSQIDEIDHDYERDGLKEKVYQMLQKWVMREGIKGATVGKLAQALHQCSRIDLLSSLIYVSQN
How it was run: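 RIPK1 at 31 ng/well in Tris pH 7.4 buffer with MgCl2, BSA, DTT and MnCl2, reacted with compounds (duplicate) for 30 min at 30 °C. ADP formed detected by ADP-Glo: 40 min stop/depletion, then 30 min detection reagent at room temperature; luminescence read.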

U937 cells = assay: U937 cell necroptosis assay (TNFa + zVAD, CellTiter-Glo recovery); assay type: cell-based; conditions: Homo sapiens, U-937, 18 h, TNFa 2 ng/mL + zVAD-fmk, read-out: U937 Zvad TNF CTG Recovery, U937, TNFa + zVAD (IC50)
How it was run: (§1)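 Human U937 (50K/well, 60 uM zVAD-fmk medium, plated same day) or murine L929 (10K/well, plated 18 h, then 40 uM zVAD-fmk medium) were grown in RPMI with 10% FBS. Both were pretreated with compound for 1 h at 37 °C before TNFa at 2 ng/mL final. Viability was read by CellTiter-Glo luminescence after 18 h.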

L929 cells = assay: L929 cell necroptosis assay (TNFa + zVAD, CellTiter-Glo recovery); assay type: cell-based, murine; conditions: Mus musculus, L929, 18 h, TNFa 2 ng/mL + zVAD-fmk, read-out: L929-CTG-recovery, L929, TNFa + zVAD (IC50)
How it was run: as §1

Structure (SMILES)	IC50 (RIPK1) [nM]	IC50 (U937 cells) [nM]	IC50 (L929 cells) [nM]
CN1C(=O)[C@@H](NC(=O)c2cc(Oc3cncc(F)c3)ccn2)COc2ccc(C#CC3(O)COC3)cc21 [I-59, (S)-4-((5-fluoropyridin-3-yl)oxy)-N-(7-((3-hydroxyoxetan-3-yl)ethynyl)-5-methyl-4-oxo-2,3,4,5-tetrahydrobenzo[b][1,4]oxazepin-3-yl)picolinamide]	15.9	3.5	382
CN1C(=O)[C@@H](NC(=O)c2cc(Oc3cncc(F)c3)ccn2)COc2ccc(C#CC(C)(C)O)cc21 [I-60, (S)-4-((5-fluoropyridin-3-yl)oxy)-N-(7-(3-hydroxy-3-methylbut-1-yn-1-yl)-5-methyl-4-oxo-2,3,4,5-tetrahydrobenzo[b][1,4]oxazepin-3-yl)picolinamide]	12.8	12.1	4590
CN1C(=O)[C@@H](NC(=O)c2cc(Cc3cccnc3)ccn2)COc2ccc(C#CC(C)(C)O)cc21 [I-61, (S)—N-(7-(3-hydroxy-3-methylbut-1-yn-1-yl)-5-methyl-4-oxo-2,3,4,5-tetrahydrobenzo[b][1,4]oxazepin-3-yl)-4-(pyridin-3-ylmethyl)picolinamide]	24.3	19.2	2420
CN1C(=O)[C@@H](NC(=O)c2cc(Cc3cccnc3)ccn2)COc2ccc(C#CC3(O)COC3)cc21 [I-62, (S)—N-(7-((3-hydroxyoxetan-3-yl)ethynyl)-5-methyl-4-oxo-2,3,4,5-tetrahydrobenzo[b][1,4]oxazepin-3-yl)-4-(pyridin-3-ylmethyl)picolinamide]	21.5	10.9	1370
CN1C(=O)[C@@H](NC(=O)c2cc(Oc3cccnc3)ccn2)COc2ccc(C#CC3CCOCC3)cc21 [I-63, (S)—N-(5-methyl-4-oxo-7-((tetrahydro-2H-pyran-4-yl)ethynyl)-2,3,4,5-tetrahydrobenzo[b][1,4]oxazepin-3-yl)-4-(pyridin-3-yloxy)picolinamide]	19.5	0.7	60
CN1C(=O)[C@@H](NC(=O)c2cc(Cc3ccccn3)ccn2)COc2ccc(C#CC3(O)COC3)cc21 [I-64, (S)—N-(7-((3-hydroxyoxetan-3-yl)ethynyl)-5-methyl-4-oxo-2,3,4,5-tetrahydrobenzo[b][1,4]oxazepin-3-yl)-4-(pyridin-2-ylmethyl)picolinamide]	30.7	67.9	767
Cc1nc(Cc2ccnc(C(=O)N[C@H]3COc4ccc(C#CC(C)(C)O)cc4N(C)C3=O)c2)cs1 [I-65, (S)—N-(7-(3-hydroxy-3-methylbut-1-yn-1-yl)-5-methyl-4-oxo-2,3,4,5-tetrahydrobenzo[b][1,4]oxazepin-3-yl)-4-((2-methylthiazol-4-yl)methyl)picolinamide]	18.1	43.4	76.3
Cc1nc(Cc2ccnc(C(=O)N[C@H]3COc4ccc(C#CC5(O)COC5)cc4N(C)C3=O)c2)cs1 [I-66, (S)—N-(7-((3-hydroxyoxetan-3-yl)ethynyl)-5-methyl-4-oxo-2,3,4,5-tetrahydrobenzo[b][1,4]oxazepin-3-yl)-4-((2-methylthiazol-4-yl)methyl)picolinamide]	15.4	35.4	98
CN1C(=O)[C@@H](NC(=O)c2cc(Oc3cncc(F)c3)ccn2)COc2ccc(C#CC3COC3)cc21 [I-67, (S)-4-((5-fluoropyridin-3-yl)oxy)-N-(5-methyl-7-(oxetan-3-ylethynyl)-4-oxo-2,3,4,5-tetrahydrobenzo[b][1,4]oxazepin-3-yl)picolinamide]	20.1	1.3	348

Now from value to compound, other results behind:

IC50 (RIPK1) [nM]	Structure (SMILES)	IC50 (U937 cells) [nM]	IC50 (L929 cells) [nM]
44.9	CN1C(=O)[C@@H](NC(=O)c2cc(Cn3cccn3)ccn2)COc2ccc(C#CC3(O)COC3)cc21 [I-70, (S)-4-((1H-pyrazol-1-yl)methyl)-N-(7-((3-hydroxyoxetan-3-yl)ethynyl)-5-methyl-4-oxo-2,3,4,5-tetrahydrobenzo[b][1,4]oxazepin-3-yl)picolinamide]	281	2640
87.8	CN1C(=O)[C@@H](NC(=O)c2cc(Cn3cccn3)ccn2)COc2ccc(C#CC(C)(C)O)cc21 [I-71, (S)-4-((1H-pyrazol-1-yl)methyl)-N-(7-(3-hydroxy-3-methylbut-1-yn-1-yl)-5-methyl-4-oxo-2,3,4,5-tetrahydrobenzo[b][1,4]oxazepin-3-yl)picolinamide]	549	2150
33.1	Cc1ccc(Cc2ccnc(C(=O)N[C@H]3COc4ccc(C#CC(C)(C)O)cc4N(C)C3=O)c2)cn1 [I-72, (S)—N-(7-(3-hydroxy-3-methylbut-1-yn-1-yl)-5-methyl-4-oxo-2,3,4,5-tetrahydrobenzo[b][1,4]oxazepin-3-yl)-4-((6-methylpyridin-3-yl)methyl)picolinamide]	190	3010
27.6	Cc1ccc(Cc2ccnc(C(=O)N[C@H]3COc4ccc(C#CC5(O)COC5)cc4N(C)C3=O)c2)cn1 [I-73, (S)—N-(7-((3-hydroxyoxetan-3-yl)ethynyl)-5-methyl-4-oxo-2,3,4,5-tetrahydrobenzo[b][1,4]oxazepin-3-yl)-4-((6-methylpyridin-3-yl)methyl)picolinamide]	91.7	1950
35.9	Cc1ncccc1Oc1ccnc(C(=O)N[C@H]2COc3ccc(C#CC(C)(C)O)cc3N(C)C2=O)c1 [I-74, (S)—N-(7-(3-hydroxy-3-methylbut-1-yn-1-yl)-5-methyl-4-oxo-2,3,4,5-tetrahydrobenzo[b][1,4]oxazepin-3-yl)-4-((2-methylpyridin-3-yl)oxy)picolinamide]	126	3520
10.4	Cc1ncccc1Oc1ccnc(C(=O)N[C@H]2COc3ccc(C#CC4(O)COC4)cc3N(C)C2=O)c1 [I-75, (S)—N-(7-((3-hydroxyoxetan-3-yl)ethynyl)-5-methyl-4-oxo-2,3,4,5-tetrahydrobenzo[b][1,4]oxazepin-3-yl)-4-((2-methylpyridin-3-yl)oxy)picolinamide]	34.3	1870
12.8	CN1C(=O)[C@@H](NC(=O)c2cc(Cc3cscn3)ccn2)COc2ccc(C#CC3(O)COC3)cc21 [I-76, (S)—N-(7-((3-hydroxyoxetan-3-yl)ethynyl)-5-methyl-4-oxo-2,3,4,5-tetrahydrobenzo[b][1,4]oxazepin-3-yl)-4-(thiazol-4-ylmethyl)picolinamide]	24.7	538
21.8	CN1C(=O)[C@@H](NC(=O)c2cc(Cc3cscn3)ccn2)COc2ccc(C#CC(C)(C)O)cc21 [I-77, (S)—N-(7-(3-hydroxy-3-methylbut-1-yn-1-yl)-5-methyl-4-oxo-2,3,4,5-tetrahydrobenzo[b][1,4]oxazepin-3-yl)-4-(thiazol-4-ylmethyl)picolinamide]	62.2	724
36.1	Cc1ccc(Oc2ccnc(C(=O)N[C@H]3COc4ccc(C#CC(C)(C)O)cc4N(C)C3=O)c2)c(C)n1 [I-78, (S)-4-((2,6-dimethylpyridin-3-yl)oxy)-N-(7-(3-hydroxy-3-methylbut-1-yn-1-yl)-5-methyl-4-oxo-2,3,4,5-tetrahydrobenzo[b][1,4]oxazepin-3-yl)picolinamide]	462	6780
67.2	Cc1ccc(Oc2ccnc(C(=O)N[C@H]3COc4ccc(C#CC5(O)COC5)cc4N(C)C3=O)c2)c(C)n1 [I-79, (S)-4-((2,6-dimethylpyridin-3-yl)oxy)-N-(7-((3-hydroxyoxetan-3-yl)ethynyl)-5-methyl-4-oxo-2,3,4,5-tetrahydrobenzo[b][1,4]oxazepin-3-yl)picolinamide]	182	4330
29.4	Cc1ncccc1Oc1ccnc(C(=O)N[C@H]2COc3ccc(C#CC4(O)CCC4)cc3N(C)C2=O)c1 [I-82, (S)—N-(7-((1-hydroxycyclobutyl)ethynyl)-5-methyl-4-oxo-2,3,4,5-tetrahydrobenzo[b][1,4]oxazepin-3-yl)-4-((2-methylpyridin-3-yl)oxy)picolinamide]	30.2	4480
